Reference: patent US4132738A, “Preparation of 15-deoxy-16-hydroxyprostaglandins” (Miles Laboratories, Inc., priority 1978, dated 1979)

What was measured:
[1] = test system: blood pressure in the hypertensive rat; assay: Effects on systolic blood pressure in the hypertensive rat; assay type: in vivo; parameters: key: 0: Not significant at any time interval; 1: Significant at one time interval; 2: Significant at two time intervals; conditions: 1 mg/kg intraperitoneal; 2, 4, 6 and 9 hours
Protocol: The acute anithypertensive activity of test compounds was determined in rats made hypertensive by the procedure of Grollman (Proc. Soc. Exper Biol. Med., 57: 102 [1944]). Female rats weighing between 60 and 100 g were anesthetized with ether, the right kidney approached through a flank retroperitoneal incision, decapsulated and tied with a figure-of-eight-ligature. The animals were left to recover and two weeks later were again anesthetized and the contralateral kidney removed. Four weeks after the second operation the rats were subjected to indirect blood pressure measurements and those showing systolic pressure values greater than 160 mmHg were selected for drug testing.
Blood pressure was measured in the tail with an inflatable occluding cuff placed at the base of the extremity and a pulse detector located distally. The cuff was inflated to approximately 300 mmHg and was slowly deflated until pulsations appeared, indicating the level of systolic pressure; diastolic pressure was not recorded by this procedure. All measurements were carried out in unanesthetized, unsedated animals maintained in a warm environment during the recording procedure and for at least 6 hours before. In all cases, three pressure readings were obtained in succession and mean values were calculated thereof.
Experiments were carried out in groups of five hypertensive rats in which systolic pressure was determined immediately before and 2, 4, 6 and 9 hours after intraperiotoneal administration of the test compound at a dose of 1 mg/kg. Drugs were diluted from stock solutions with phosphate buffer (Lee et. al., Prostaglandins, 29 [1973]), so as to inject this quantity in a volume of 1 ml/kg. Changes from control blood pressure values were calculated for each interval both in mmHg and in percent, and evaluated for significance by means of Wilcoxon's signed rank test (Wilcoxon, R. and Wilcox, R. A., "Some Rapid Approximate Statistical Procedures," Lederle Laboratories, Pearl River [1964]).

[2] = test system: gastric secretion in the rat; assay: Effects on gastric secretion in the rat; assay type: in vivo; conditions: for GAS value, carbinol versus methyl ester analogue: comparison in words
Protocol: A procedure based on that described by Lipman, W. (J. Pharm. Pharmacol., 21: 335 [1968]) was used to assess the influence of test compounds on gastric secretion. Rats of one sex weighing 150 to 200 g were randomly divided into groups of six animals each and fasted for 48 hours previous to the experiments, water being available ad libitum. The animals were anesthetized with ether, the abdomen opened through a midline incision, and the pylorus ligated. Test compounds were diluted from stock solution so as to administer a dose of 1.5 mg/kg in a volume equivalent to 1 ml/kg. Subcutaneous injections were applied immediately after surgery and again 2 hours later, so that a total dose of 3.0 mg/kg was administered. Dilutions were made with phosphate buffer (pH 7.38) as recommended by Lee et al. (Prostaglandins, 3: 29 [1973]) in order to insure adequate stability of drugs at the subcutaneous depot. Each compound was tested in one group of rats; an additional control group received only the vehicle.
Four hours after pyllric ligation the animals were killed with ether, the cardias ligated, and the stomachs removed. The volume of gastric secretion was measured and the contents centrifuged at 5000 rpm for 10 minutes. Total acid in the supernatant was titrated against a 0.1 N sodium hydroxide solution and the amount expressed in mEq.
Volume and total acid values of the treated group were compared with those of the controls […]. Antisecretory activity was scored according to the following scale: […]

[3] = test system: guinea pig trachea; assay: Effects on the guinea pig trachea in vitro; assay type: cell-based; conditions: comparison in words
Protocol: A male guinea pig weighing 200-500 g was killed by a blow on the head. A 20 mm length of the trachea was dissected from the animal, transferred to a petri dish containing Krebs' solution (aerated with 95% O2 and 5% CO2 at 37° C.), and cut longitudinally opposite the tracheal muscle. The tissue was then cut transversely three quarters of the distance across, a second cut in the opposite direction (again three quarters of the distance across the tissue) was made and the procedure was continued for the whole tissue. The ends of the trachea were pulled to form a zig-zig shaped strip. The tracheal strip used in the experiment was approximately 30 mm when extended under 0.25-0.5 g load in the tissue bath. Cotton thread was tied to one end of the tissue, and linen thread to the other. It was attached via the linen thread to a glass hook in a 5 ml isolated tissue bath containing Krebs' solution (37° C., aerated with a mixture of 95% O2 and 5% CO2). The opposite end was attached via cotton to an isotonic Harvard transducer (Model 386 Heart/Smooth Muscle Transducer, Harvard Apparatus). The load on the transducer lever was small, usually 0.3 g, with a range of 0.25-0.5 g, and the magnification high, 80 fold using an appropriate twin-channel pen recorder. A minimum of thirty minutes was allowed before applying a test compound to the tissue. Test compounds were then applied (in volumes of 0.5 ml) at thirty minute intervals, being in contact with the tissue for five minutes followed by an overflow washout time of twenty seconds.
Prostaglandin E1, at a bath concentration of 0.1 mcg/ml, was then tested repeatedly on two such strips, obtained from two different animals, until two responses (the values of which are recorded) differing by no more than 25% occur. A test compound was then added to the same two strips at bath concentrations of 0.01, 0.1, 1.0, and 10.0 mcg/ml and the effects of the compound were recorded. After the test compound had been evaluated at the highest concentration, PGE1 was retested at 0.1 mcg/ml (and the value of the response recorded) to insure that the viability of the strips was retained during the experiment. The mean of the effects of the test compound on the two strips was then calculated for each concentration, and, biased on the resulting values, an activity value was assigned as follows: […]

Compound	Blood Pressure Hypertensive Rat: activity value [1]	GAS activity ([2]; result in words)	Guinea pig trachea value, carbinol versus methyl ester analogue [3]	GAS value, carbinol versus methyl ester analogue [2]
CCCC(C)(C)C(O)C/C=C/[C@H]1[C@H](O)CC(=O)[C@@H]1CCCCCCCO (single isomer, unassigned) [TR 4752, 1, 11α, 16R or S-trihydroxy-17-dimethylprost-13E-en-9-one]	0	no GAS activity	–	–
CCCCC(C)(O)C/C=C/[C@H]1[C@H](O)CC(=O)[C@@H]1CCCCCCCO (stereo partly drawn) [TR 4698, 16-methyl-1,11α,16RS-trihydroxyprost-13E-en-9-one]	1	–	the same	the same
O=C1C[C@@H](O)[C@H](/C=C/CC2(O)CCCCC2)[C@H]1CCCCCCCO [TR 4703, 16, 20-Methano-1, 11α, 16-trihydroxyprost-13E-en-9-one]	0	–	–	–
CCCCC(O)C/C=C/[C@H]1[C@H](O)CC(=O)[C@@H]1CCCCCCCO (stereo partly drawn) [TR 4706, 1,11α,16RS-trihydroxyprost-13E-en-9-one]	0	–	the same	the same
COC(=O)CCCCCC[C@H]1C(=O)C[C@@H](O)[C@@H]1/C=C/CC1(O)CCCCC1 [TR 4717, Methyl 11α, 16RS-dihydroxy-16, 20-methano-9-oxoprost-13E-en-1-oate]	0	–	–	–
CCCC(C)C(O)C/C=C/[C@H]1[C@H](O)CC(=O)[C@@H]1CCCCCCCO (stereo partly drawn) [TR 4749, 1, 11α, 16RS-trihydroxy-17RS-methylprost-13E-en-9-one]	0	–	lower	lower
COC(=O)CCCCCC[C@H]1C(=O)C[C@@H](O)[C@@H]1/C=C/[C@H]1CCCC[C@@H]1O [TR 4767, Methyl 15R, 20-cyclo-11α, 16-trans-dihydro-9-oxoprost-13E-en-1-oate]	0	–	–	–
O=C1C[C@@H](O)[C@H](/C=C/CC2(O)CC3CCCC32)[C@H]1CCCCCCCO (stereo partly drawn) [TR 4799, 16, 18-Methano-17, 20-methano-1, 11α, 16RS-trihydroxyprost-13E-en-9-one]	0	–	–	–
COC(=O)CCCCCC[C@H]1C(=O)C[C@@H](O)[C@@H]1/C=C/CC1(O)CC2C=CCC21 (stereo partly drawn) [TR 4800, Methyl 11α, 16RS-dihydroxy-16, 18-methano-17, 20-methano-9-oxoprosta-13E, 19-dien-1-oate]	0	–	–	–
COC(=O)CCCCCC[C@H]1C(=O)C[C@@H](O)[C@@H]1/C=C/CC1(O)CC2CCCCC21 (stereo partly drawn) [TR 4808, Methyl 11α, 16RS-dihydroxy-17, 20-ethano-16, 18-methano-9-oxoprost-13E-en-1-oate]	0	–	–	–
CCCC(C)C(O)C/C=C/[C@H]1[C@H](O)CC(=O)[C@@H]1CCCCCCC(=O)OC (stereo partly drawn) [TR 4814, Methyl 11α, 16RS-dihydroxy-17-methyl-9-oxoprost-13E-oate, reference compound]	1	–	–	–
CC1CCCC(O)(C/C=C/[C@H]2[C@H](O)CC(=O)[C@@H]2CCCCCCCO)C1 (stereo partly drawn) [TR 4851, 16, 20-Methano-18RS-methyl-1, 11α, 16RS-trihydroxyprost-13E-en-9-one]	0	–	–	–
COC(=O)CCCCCC[C@H]1C(=O)C[C@@H](O)[C@@H]1/C=C/CC1(O)CC2CCC1C2 (stereo partly drawn) [TR 4883, Methyl 11α,16RS-dihydroxy-16,20-methano-17,20-methano-9-oxoprost-13E-en-1-oate]	1	–	–	–
